# Experiments:
# Vero C1008 = assay: Cytotoxicity of compound against Vero E6 cells by MTT assay.; details: chlorocebus sabaeus, vero c1008
# [1] = molecular target: T1, Muscarinic acetylcholine receptor M2 (Homo sapiens, UniProt P08172); assay: Activity of compound against Muscarinic acetylcholine receptor M2 (CHRM2) by displacement of 3H-QNB
# T1 sequence (P08172 whole entry): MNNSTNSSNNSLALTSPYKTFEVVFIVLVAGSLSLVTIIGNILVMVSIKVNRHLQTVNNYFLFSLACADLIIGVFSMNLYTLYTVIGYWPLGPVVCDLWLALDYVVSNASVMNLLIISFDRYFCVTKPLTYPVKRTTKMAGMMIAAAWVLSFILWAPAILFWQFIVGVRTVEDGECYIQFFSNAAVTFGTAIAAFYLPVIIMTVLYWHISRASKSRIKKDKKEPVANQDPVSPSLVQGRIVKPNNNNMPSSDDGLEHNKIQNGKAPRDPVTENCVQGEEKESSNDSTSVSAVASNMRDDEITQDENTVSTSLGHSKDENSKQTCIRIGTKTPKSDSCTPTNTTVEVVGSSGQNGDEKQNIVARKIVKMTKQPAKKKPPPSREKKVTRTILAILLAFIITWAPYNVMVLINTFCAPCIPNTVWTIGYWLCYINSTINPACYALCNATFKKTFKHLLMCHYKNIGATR
# [2] = molecular target: Voltage-gated inwardly rectifying potassium channel KCNH2 (Homo sapiens, UniProt Q12809)
# Sequence of Voltage-gated inwardly rectifying potassium channel KCNH2 (Q12809 whole entry): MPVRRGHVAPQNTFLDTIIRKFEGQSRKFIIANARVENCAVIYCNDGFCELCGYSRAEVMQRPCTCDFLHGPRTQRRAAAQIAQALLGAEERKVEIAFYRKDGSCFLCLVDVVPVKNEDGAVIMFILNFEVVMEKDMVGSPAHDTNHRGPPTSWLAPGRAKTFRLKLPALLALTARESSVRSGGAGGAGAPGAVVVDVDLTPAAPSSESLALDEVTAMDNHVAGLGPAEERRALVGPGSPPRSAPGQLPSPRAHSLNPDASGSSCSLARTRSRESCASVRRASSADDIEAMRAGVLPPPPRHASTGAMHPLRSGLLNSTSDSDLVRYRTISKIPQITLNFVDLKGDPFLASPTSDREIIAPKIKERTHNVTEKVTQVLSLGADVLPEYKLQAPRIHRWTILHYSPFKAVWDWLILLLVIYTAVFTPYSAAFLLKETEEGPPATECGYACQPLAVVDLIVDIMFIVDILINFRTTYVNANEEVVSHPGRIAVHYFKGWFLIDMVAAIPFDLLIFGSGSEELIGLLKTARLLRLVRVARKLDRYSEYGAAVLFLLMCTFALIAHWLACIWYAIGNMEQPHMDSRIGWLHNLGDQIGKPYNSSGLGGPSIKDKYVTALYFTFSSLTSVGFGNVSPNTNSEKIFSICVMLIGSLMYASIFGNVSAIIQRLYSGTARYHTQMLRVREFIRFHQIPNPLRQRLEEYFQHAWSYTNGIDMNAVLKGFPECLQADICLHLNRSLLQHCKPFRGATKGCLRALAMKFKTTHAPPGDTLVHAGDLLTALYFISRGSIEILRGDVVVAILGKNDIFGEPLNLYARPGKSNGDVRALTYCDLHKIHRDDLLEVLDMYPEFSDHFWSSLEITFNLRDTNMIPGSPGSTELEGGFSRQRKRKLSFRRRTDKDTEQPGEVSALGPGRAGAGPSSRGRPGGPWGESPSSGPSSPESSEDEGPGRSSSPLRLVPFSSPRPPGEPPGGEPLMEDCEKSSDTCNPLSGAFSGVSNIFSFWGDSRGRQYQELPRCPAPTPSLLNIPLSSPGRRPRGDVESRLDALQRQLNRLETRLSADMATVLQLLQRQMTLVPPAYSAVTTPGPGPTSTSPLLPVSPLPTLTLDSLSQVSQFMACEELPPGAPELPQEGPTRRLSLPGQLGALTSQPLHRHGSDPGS
# Description: hERG binding assays: Displacement of [3H]-Dofetilide (5 nM final) from hERG membranes obtained from HEK293 cells
# [3] = molecular target: T2, Alpha-2B adrenergic receptor (Homo sapiens, UniProt P18089)
# T2 sequence (P18089 whole entry): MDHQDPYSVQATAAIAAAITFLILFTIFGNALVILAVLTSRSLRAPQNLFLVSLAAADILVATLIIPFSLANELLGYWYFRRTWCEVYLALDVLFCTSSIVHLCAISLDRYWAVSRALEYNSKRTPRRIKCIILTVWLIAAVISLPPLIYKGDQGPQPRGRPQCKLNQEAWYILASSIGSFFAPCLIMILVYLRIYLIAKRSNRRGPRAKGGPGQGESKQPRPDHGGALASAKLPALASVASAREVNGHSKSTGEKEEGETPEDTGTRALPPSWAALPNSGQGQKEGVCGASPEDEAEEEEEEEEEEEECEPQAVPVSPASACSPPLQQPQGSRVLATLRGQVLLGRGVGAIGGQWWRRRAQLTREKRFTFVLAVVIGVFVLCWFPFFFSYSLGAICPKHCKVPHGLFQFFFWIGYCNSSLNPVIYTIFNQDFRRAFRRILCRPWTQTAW
compound,measurement,setting,value
CCCN1CCC=C(c2cc(-c3ccc(C)cc3)no2)C1,pCC50,Vero C1008,~ 2.928
same,Ki,[1],24 µM
same,Ki,[2],10 µM
same,Ki,[3],20.4 µM
